Patent US20160318856A1, “Substituted Urea eIF2alpha Kinase Activators” (THE BRIGHAM AND WOMEN'S HOSPITAL, INC., priority 2013, published 2016)
Read-outs that look alike come from different tables or passages of the source.

What was measured:
[1] = system: eIF2α phosphorylation (eIF2•GTP•Met-tRNAi ternary complex; HRI activation); assay: surrogate dual luciferase eIF2α phosphorylation (ternary complex) assay; type: cell-based, human; conditions: for maximal fold induction: Homo sapiens; for C3X: Calculated concentration of compound that will cause three-fold increase in the surrogate eIF2α phosphorylation assay: Table 7
Text: The dual luciferase expression vector and other plasmids used for these studies were previously described (see, for example, Ziegeler, G. et al. Journal of Biological Chemistry 2010, 285(20), 15408-19). The ternary complex assay, surrogate of eIF2α phosphorylation, has been described elsewhere (see, for example, Chen, T. et al. Nature Chemical Biology 2011, 7(9), 610-6). Briefly, the pBISA vector, which contains seven copies of the tetracycline-regulated transactivator response element (TRE), is flanked on both sides by minimal human cytomegalovirus (CMV) minimal promoters allowing bi-directional transcription and two MCSs (multiple cloning sites). Firefly and renilla luciferases were subcloned into MCS-I and MCS-II, respectively. This plasmid, designated pBISA-DL, transcribes two mRNAs that contain the 90 nucleotide plasmid derived 5′UTR (same sequence in both mRNAs), and the ORF encoding either firefly or renilla luciferase followed by a polyadenylation sequence. This plasmid was further modified by inserting the 5′UTR of ATF-4 mRNA into MCS-I in front of the firefly luciferase mRNA. Transcription from this unit generates an mRNA that contains the firefly luciferase ORF preceded by a 5′UTR composed of 90 nucleotides derived from the plasmid and 267 nucleotides derived from the 5′UTR of ATF-4 mRNA. Transcription from the other unit generates an mRNA that contains the renilla luciferase ORF proceeded only by the 90-nucleotide plasmid-derived sequence in the 5′UTR (pBISA-DL (ATF-4)) (see, for example, Chen, T. et al. Nature Chemical Biology 2011, 7(9), 610-6).
Cells expressing firefly and renilla luciferases were assayed with a dual glow luciferase assay kit, per manufacturer's instruction (Promega Inc., Madison, Wis.). The data calculations were carried out as the ratio of firefly to renilla luciferase signal.
A library of 1900 urea compounds was screened in the surrogate dual luciferase eIF2α phosphorylation (ternary complex) assay. This library was originally assembled and screened for inhibition of sEH by Hammock's group at UC-Davis (see, for example, Chen, T. et al. Nature Chem Biol 2011, 7, 610-616; Ziegeler, G et al. J Biol Chem 2010, 285, 15408-15419). We developed this assay in order to identify compounds that activate HRI, taking advantage of the fact that activated HRI phosphorylates eIF2α thereby reducing the amount of the eIF2•GTP•Met-tRNAi ternary complex that results in inhibition of translation of many mRNAs but paradoxically increases translation of some mRNAs that contain multiple upstream ORF (uORF) in their 5′ untranslated regions (UTRs). In our assay, firefly (F) luciferase mRNA is fused to 5′UTR of activating transcription factor 4 (ATF-4) mRNA that has multiple uORFs while renilla (R) luciferase mRNA is fused to a 5′UTR lacking any uORFs. Compounds that reduce the amount of the ternary complex, such as those activating HRI, would increase F luciferase expression while decreasing the R luciferase expression, resulting in an increased F/R luciferase ratio. To calculate the activity scores, the F/R ratios for every compound-treated wells were normalized to vehicle-treated (DMSO) wells that was arbitrarily set at 1 (F/R=1).

[2] = system: CRL-2813 human melanoma cancer cells; assay: cell proliferation (SRB) assay, CRL-2813; type: cell-based
Procedure: (§1) Cells were seeded in 96-well plates and maintained for 5 days in the presence of 0.5 to 20 μM of individual compound, and cell proliferation was measured by the sulforhodamine B (SRB) assay as described previously (see, for example, Palakurthi, S. S. et al. Cancer Research 2000, 60(11), 2919-2925). Briefly, at the end of a 5-day treatment, cells were fixed in 10% cold trichloroacetic acid. Cell number was estimated by measuring the remaining bound dye of sulforhodamine B after washing. The percentage of growth was calculated by using the equation: 100×[(T−T0)/(C−T0)], where T and C represent the absorbance in treated and control cultures at Day 5, and T0 at time zero, respectively. If T is less than T0, cell death has occurred and can be calculated from 100×[(T−T0)/T0].

Panc-1 = assay: cell proliferation (SRB) assay, Panc-1; type: cell-based; conditions: Homo sapiens, Table 7
Procedure: as §1
The compounds shown in Table 7 were evaluated using for activation of HRI using the dual luciferase surrogate eIF2α phosphorylation assay (see, for example, Chen, T. et al. Nature Chem Biol 2011, 7, 610-616) and for inhibition of cell proliferation using the SRB assay (see, for example, Palakurthi, S. S. et al. Cancer Res 2000, 60, 2919-2925) as described above.

[3] = DMSO = 1, maximum tested concentration 20 μM, read-out: Emax: Maximum activity of compound expressed as fold over vehicle
[4] = Homo sapiens, CRL2813, SRB assay, Table 7, read-out: IC50 CRL-2813
[5] = cell proliferation assay, Table 2, cell line not named, read-out: IC50
[6] = ternary complex assay, F/R normalized to vehicle (DMSO = 1)
[7] = cell proliferation assay (SRB, 5 days), cell line not named in Table 1, values equal CRL-2813 values of Tables 5/8, read-out: IC50

SMILES | maximal fold induction [1, 3] | C3X: Calculated concentration of compound that will cause three-fold increase in the surrogate eIF2α phosphorylation assay [1] | IC50 [2, 4] | IC50 (Panc-1) | other results
N#Cc1cc(C(F)(F)F)ccc1O[C@H]1CC[C@H](NC(=O)Nc2cccc(C(F)(F)F)c2)CC1 | 8 | 2.5 µM | 1300 nM | 1800 nM | –
O=C(Nc1cccc(C(F)(F)F)c1)N[C@H]1CC[C@H](Oc2ccc(F)cc2)CC1 | 11 | 2.5 µM | 2100 nM | 3000 nM | –
O=C(Nc1cccc(OC(F)(F)F)c1)N[C@H]1CC[C@H](Oc2ccc(OC(F)(F)F)cc2)CC1 | 14 | 1.3 µM | 1200 nM | 3000 nM | –
N#Cc1ccc(O[C@H]2CC[C@H](NC(=O)Nc3cccc(C#N)c3)CC2)cc1 | – | – | 7000 nM | > 10000 nM | –
N#Cc1ccc(NC(=O)N[C@H]2CC[C@H](Oc3ccc(C(F)(F)F)cc3)CC2)cc1 | 9 | 0.6 µM | 900 nM | 2000 nM | –
N#Cc1cccc(NC(=O)N[C@H]2CC[C@H](Oc3ccc(C(F)(F)F)cc3)CC2)c1 | 10 | 2 µM | 800 nM | 2500 nM | –
N#Cc1ccc(NC(=O)N[C@H]2CC[C@H](Oc3ccc(C#N)cc3)CC2)cc1 | – | – | 10000 nM | 10000 nM | –
O=C(Nc1cccc(C(F)(F)F)c1)N[C@H]1CC[C@H](Oc2ccc(C(F)(F)F)cn2)CC1 | 6 | 3.5 µM | 1500 nM | 2800 nM | –
O=C(Nc1ccc([N+](=O)[O-])cc1)N[C@H]1CC[C@H](OCc2c(F)cccc2F)CC1 [II-9p] | – | – | – | – | Emax (F/R) ([1]; 7.5 μM compound): 0.87 F/R; Emax (F/R) ([1]; 15 μM compound): 0.83 F/R; Emax (F/R) ([1]; 30 μM compound): 0.83 F/R; IC50 [2, 5]: > 20000 nM
O=C(Nc1ccccc1Cl)NC1CCC(Oc2ccc(F)cc2)CC1 (centres unmarked) [Compound I-2o] | – | – | – | – | Emax (F/R) [1, 6]: 5.37 F/R; IC50 [2, 7]: 9100 ± 1000 nM
O=C(Nc1cccc(C(F)(F)F)c1)NC1CCC(Oc2ccc(F)cc2)CC1 (centres unmarked) [Compound I-5m] | – | – | – | – | maximal fold induction ([1]; ternary complex assay, F/R normalized to vehicle (DMSO = 1), read-out: Emax (F/R)): 11.8; IC50 ([2]; Homo sapiens, CRL2813, 120 h, cell proliferation assay (SRB, 5 days), cell line not named in Table 1, values equal CRL-2813 values of Tables 5/8, read-out: IC50): 2600 ± 300 nM; IC50 ([2]; Homo sapiens, CRL2813, cell proliferation assay, Table 3, cell line not named, values equal CRL-2813 values of Table 8, read-out: IC50): 2600 ± 600 nM
O=C(Nc1ccc(C(F)(F)F)cc1)NC1CCC(Oc2ccc(F)cc2)CC1 (centres unmarked) [Compound I-5p] | – | – | – | – | Emax (F/R) [1, 6]: 13.99 F/R; IC50 [2, 7]: 2800 ± 100 nM
COc1cccc(NC(=O)N[C@H]2CC[C@H](OCc3c(F)cccc3F)CC2)c1 [II-8m] | – | – | – | – | Emax (F/R) ([1]; 7.5 μM compound): 0.84 F/R; Emax (F/R) ([1]; 15 μM compound): 0.97 F/R; Emax (F/R) ([1]; 30 μM compound): 0.74 F/R; IC50 [2, 5]: > 20000 nM
O=C(Nc1cc(C(F)(F)F)cc(C(F)(F)F)c1)N[C@H]1CC[C@H](Oc2ccc(C(F)(F)F)cc2)CC1 | 38 | 0.15 µM | 150 nM | 700 nM | –
CSc1cccc(NC(=O)N[C@H]2CC[C@H](OCc3c(F)cccc3F)CC2)c1 [II-10m] | – | – | – | – | Emax (F/R) ([1]; 7.5 μM compound): 1.01 F/R; Emax (F/R) ([1]; 15 μM compound): 0.73 F/R; Emax (F/R) ([1]; 30 μM compound): 1.06 F/R; IC50 [2, 5]: > 20000 nM
O=C(Nc1ccccc1OC(F)(F)F)NC1CCC(Oc2ccc(F)cc2)CC1 (centres unmarked) [Compound I-6o] | – | – | – | – | Emax (F/R) [1, 6]: 1.41 F/R; IC50 [2, 7]: > 20000 nM
O=C(Nc1ccc(Br)cc1)N[C@H]1CC[C@H](OCc2c(F)cccc2F)CC1 [II-3p] | – | – | – | – | Emax (F/R) ([1]; 7.5 μM compound): 0.76 F/R; Emax (F/R) ([1]; 15 μM compound): 0.85 F/R; Emax (F/R) ([1]; 30 μM compound): 0.73 F/R; IC50 [2, 5]: > 20000 nM
N#Cc1ccc(O[C@H]2CC[C@H](NC(=O)Nc3cccc(C(F)(F)F)c3)CC2)cc1 | 4 | 5 µM | 4000 nM | 3000 nM | –
Cc1ccccc1NC(=O)N[C@H]1CC[C@H](OCc2c(F)cccc2F)CC1 [II-7o] | – | – | – | – | Emax (F/R) ([1]; 7.5 μM compound): 0.78 F/R; Emax (F/R) ([1]; 15 μM compound): 0.79 F/R; Emax (F/R) ([1]; 30 μM compound): 0.83 F/R; IC50 [2, 5]: > 20000 nM
COc1ccccc1NC(=O)NC1CCC(Oc2ccc(F)cc2)CC1 (centres unmarked) [Compound I-8o] | – | – | – | – | Emax (F/R) [1, 6]: 1.51 F/R; IC50 [2, 7]: > 20000 nM
O=C(Nc1ccccc1OC(F)(F)F)N[C@H]1CC[C@H](OCc2c(F)cccc2F)CC1 [II-6o] | – | – | – | – | Emax (F/R) ([1]; 7.5 μM compound): 0.93 F/R; Emax (F/R) ([1]; 15 μM compound): 0.93 F/R; Emax (F/R) ([1]; 30 μM compound): 0.76 F/R; IC50 [2, 5]: > 20000 nM
